Biological target: T1, AFP1 (Anti-Fungal Protein 1; AFP1-His) (Zea mays, UniProt B4FUR2)
T1 construct: full-length with own signal peptide, secreted; C-terminal His tag; transient expression in Nicotiana benthamiana, NTA-purified from apoplastic fluid; two DUF26 domains
T1 sequence (B4FUR2 26-268): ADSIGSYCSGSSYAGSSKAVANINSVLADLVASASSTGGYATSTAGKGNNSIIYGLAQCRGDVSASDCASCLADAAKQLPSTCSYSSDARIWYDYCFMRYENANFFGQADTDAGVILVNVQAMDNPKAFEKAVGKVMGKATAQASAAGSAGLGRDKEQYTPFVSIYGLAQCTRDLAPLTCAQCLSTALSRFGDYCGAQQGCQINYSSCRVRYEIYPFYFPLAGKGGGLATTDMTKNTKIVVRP
Assay: pull-down on mannose-agarose beads, anti-His western blot
Format: binding
Details: mannose immobilised on agarose; 10 mM Tris-HCl pH 7.5, 20 mM CaCl2, 1 M NaCl, 0.05% Tween-20, 4 °C, 1 h

With `OC[C@H]1OC(O)[C@@H](O)[C@@H](O)[C@@H]1O` (stereo partly shown) [mannose] the “pull-down on mannose-agarose beads, anti-His western blot” value was “strong binding was observed for wild type AFP1-His”.
